{"source": "patent US20210015897A1", "about": "“METHODS TO PRODUCE PEPTIDES, POLYPEPTIDES OR CELLS FOR MODULATING IMMUNITY” (IMNATE SARL, priority 2017, published 2021)", "key": {"[1]": {"test_system": "CD4+ T cells", "assay": "Proliferation of AAV-specific CD4+ T cells on peptide-loaded dendritic cells (thymidine incorporation)", "assay_type": "cell-based, mice", "description": "The peptide of interest is then produced by chemical synthesis together with a potentiating motif made of a cysteine residue added to flanking regions on each side of the epitope (SEQ ID NO: 18)."}, "[2]": {"test_system": "CD4+ T cells to the AAV capsid", "assay": "Functional assay of spleen CD4+ T cells after subcutaneous immunisation with peptide in alum", "assay_type": "in vivo, mice", "conditions": "4 subcutaneous administrations at fortnight intervals with alum; spleen 10 days after last immunization"}, "[3]": {"test_system": "AAV vector", "assay": "Immune response to IV AAV vector particles in peptide-immunized mice", "assay_type": "in vivo", "conditions": "10^9 AAV vector particles IV twice at an interval of 6 weeks", "description": "Mice immunized with peptide of SEQ ID NO: 18 are then used for direct IV administration of 10^9 AAV vector particles administered twice at an interval of 6 weeks."}, "[4]": {"test_system": "class II-restricted effector CD4+ T cells", "assay": "Peptide added to dendritic cells in cultures with class II-restricted effector CD4+ T cells", "assay_type": "cell-based, human", "protocol": "Naïve human CD4+ T cells are obtained from peripheral blood of subjects carrying either the DQ2 or DQ8 haplotype using microbeads coated with an anti-CD4+ antibody. Such cells are incubated with autologous dendritic cells derived from peripheral blood monocytes and loaded with peptide of sequence (SEQ ID NO: 19) so as to obtain effector CD4+ T cells.\nIn parallel experiments, a peptide of same sequence but containing a potentiating motif within flanking residues is used. Thus, a peptide of sequence (SEQ ID NO: 20) is produced, which contains in its flanking residues a sequence derived from an antibody to CD4, specific for the second extracellular domain of CD4."}}}
{"substance": "SEQ ID NO: 17: AAV VP1 capsid peptide encompassing an epitope activating CD4+ T cells (FNGLDKGEPVNEA; AAV)", "values": [{"measurement": "specificity of CD4+ T cell activation by thymidine incorporation as a marker of proliferation", "setting": "[1]", "result": "confirmed to be specific"}]}
{"substance": "SEQ ID NO: 18: AAV VP1 epitope with a cysteine residue added to flanking regions on each side (HCFNGLDKGEPVNEACH; SEQ 17 + Cys and Cys)", "values": [{"measurement": "activity of CD4+ T cells obtained by the immunisation schedule", "setting": "[2]", "result": "exert a regulatory activity"}, {"measurement": "immune response towards the AAV vector", "setting": "[3]", "result": "do not mount an immune response towards the AAV vector"}]}
{"substance": "SEQ ID NO: 20: peptide of same sequence as SEQ ID NO: 19 with flanking sequence derived from an antibody to CD4 (QLQPFPQPQLPYPQRYD; SEQ I9 + CD4 motif)", "values": [{"measurement": "apoptosis of antigen-presenting dendritic cell and bystander effector CD4+ T cells", "setting": "[4]", "result": "induction of apoptosis"}, {"measurement": "conversion of effector CD4+ T cells", "setting": "[4]", "result": "conversion of effector CD4+ T cells into cells with strong regulatory activity"}]}
